In patent publication US7982042B2, “Thiozanthene derivatives as delta-opioid modulators” (priority 2003, dated 2011):
Read-outs that look alike come from different tables or passages of the source.

Key:
[1] = target: T1, Rat brain delta opioid receptor (Rattus norvegicus, UniProt P33533); assay: Rat brain delta opioid receptor binding
T1 construct: from tissue; host or cells: rat brain

[2] = target: T2, Rat brain mu opioid receptor (Rattus norvegicus, UniProt P33535); assay: Rat brain mu opioid receptor binding assay ([3H]DAMGO)
T2 construct: from tissue; host or cells: forebrain of male Sprague Dawley rats
T2 sequence (P33535 whole entry): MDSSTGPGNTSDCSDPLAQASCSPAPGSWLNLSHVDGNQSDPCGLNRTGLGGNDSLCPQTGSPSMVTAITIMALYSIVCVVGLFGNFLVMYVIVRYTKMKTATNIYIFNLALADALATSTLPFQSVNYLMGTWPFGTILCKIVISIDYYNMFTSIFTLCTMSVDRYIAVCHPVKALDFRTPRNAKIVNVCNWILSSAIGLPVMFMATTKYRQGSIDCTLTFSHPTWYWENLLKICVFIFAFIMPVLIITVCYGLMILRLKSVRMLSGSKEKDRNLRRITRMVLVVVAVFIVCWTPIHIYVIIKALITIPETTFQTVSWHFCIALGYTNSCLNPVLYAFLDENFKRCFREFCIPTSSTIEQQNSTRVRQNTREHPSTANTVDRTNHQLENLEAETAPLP
Protocol: • Procedure: Male, Sprague Dawley (150-250 g, VAF, Charles River, Kingston, N.Y.) are killed by CO2, and their brains removed and placed immediately in ice cold Tris HCl buffer (50 mM, pH 7.4). The forebrains are separated from the remainder of the brain by a coronal transection, beginning dorsally at the colliculi and passing ventrally through the midbrain-pontine junction. After dissection, the forebrains are homogenized in Tris buffer in a Teflon®-glass homogenizer. The homogenate is diluted to a concentration of 1 g of forebrain tissue per 80 mL Tris and centrifuged at 39,000×g for 10 min. The pellet is resuspended in the same volume of Tris buffer containing 5 mM MgCl2 with several brief pulses from a Polytron homogenizer. This particulate preparation is used for the mu-opioid binding assays. […] Kd and Ki values are calculated using GraphPad PRISM data analysis program.

delta opioid receptor = target: T3, delta opioid receptor (Mus musculus, UniProt P32300); assay: [35S]GTPγS binding assay in NG108-15 cell membrane; format: biochemical
T3 construct: host or cells: NG108-15 cells (membranes, purchased)
T3 sequence (P32300 whole entry): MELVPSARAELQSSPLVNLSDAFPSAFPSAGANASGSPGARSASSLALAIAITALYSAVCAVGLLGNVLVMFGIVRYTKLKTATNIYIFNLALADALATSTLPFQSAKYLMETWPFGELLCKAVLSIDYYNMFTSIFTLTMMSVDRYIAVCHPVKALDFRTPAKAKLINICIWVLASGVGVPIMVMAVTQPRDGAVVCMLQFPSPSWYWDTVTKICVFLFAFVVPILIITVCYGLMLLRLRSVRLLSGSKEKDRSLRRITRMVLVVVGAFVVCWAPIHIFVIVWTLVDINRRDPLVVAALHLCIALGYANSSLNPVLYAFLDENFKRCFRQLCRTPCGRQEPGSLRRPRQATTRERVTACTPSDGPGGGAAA
Protocol: NG108-15 cell membranes were purchased from Applied Cell Sciences (Rockville, Md.). An 8 mg/mL portion of membrane protein was suspended in 10 mM TRIS-HC pH 7.2, 2 mM EDTA, 10% sucrose.
Membranes were maintained at 4-8° C. A 1 mL portion of membranes was added into 10 mL cold binding assay buffer. The assay buffer contained 50 mM Tris, pH 7.6, 5 mM MgCl2, 100 mM NaCl, 1 mM DTT and 1 mM EGTA. The membrane suspension was homogenized with a Polytron for 2 times and centrifuged at 3000 rpm for 10 min. The supernatent was then centrifuged at 18,000 rpm for 20 min. The pellet was saved in a tube and 10 ml assay buffer was added into the tube. The pellet and buffer were mixed with a Polytron.
The pellet membranes (75 μg/ml) were preincubated with SPA (10 mg/ml) at 25° C. for 45 min in the assay buffer. […] GTPγS in the same Tris buffer containing 100 μM GDP in total volume of 200 μl. Increasing concentrations of receptor agonists were used to stimulate [^35S] GTPγS binding. The basal binding was tested in the absent agonists and no specific binding was tested in the present 10 μM unlabeled GTPγS. The data were analyzed on a Top counter.
% of Basal=(stimulate−non specific)*100/(basal−non specific). EC50 values are calculated using a Prism program.

[3] = target: T4, human delta opioid receptor (Homo sapiens, UniProt P41143); assay: [35S]GTPγS binding assay in CHO-hδ cell membranes; format: biochemical
T4 construct: purchased Receptor Biology, Inc. (Baltimore, Md.); host or cells: CHO cells expressing the human delta receptor (membranes)
T4 sequence (P41143 whole entry): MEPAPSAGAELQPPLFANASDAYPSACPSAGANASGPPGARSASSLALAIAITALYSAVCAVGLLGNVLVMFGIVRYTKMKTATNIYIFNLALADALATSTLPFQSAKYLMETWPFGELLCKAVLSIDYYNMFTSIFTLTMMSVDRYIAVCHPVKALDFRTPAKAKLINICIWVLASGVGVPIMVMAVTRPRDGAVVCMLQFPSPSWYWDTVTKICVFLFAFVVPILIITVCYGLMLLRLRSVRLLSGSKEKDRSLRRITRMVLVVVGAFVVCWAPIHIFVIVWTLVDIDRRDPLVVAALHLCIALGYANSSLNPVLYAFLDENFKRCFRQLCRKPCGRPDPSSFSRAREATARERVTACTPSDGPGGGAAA
Protocol: CHO-hδ cell membranes are purchased from Receptor Biology, Inc. (Baltimore, Md.). 10 mg/ml of membrane protein is suspended in 10 mM TRIS-HC pH 7.2, 2 mM EDTA, 10% sucrose.
(§1) Membranes are maintained at 4-8° C. 1 ml of membranes is added into 15 ml cold binding assay buffer. The assay buffer contained 50 mM HEPES, pH 7.6, 5 mM MgCl2, 100 mM NaCl, 1 mM DTT and 1 mM EDTA. The membrane suspension is homogenized with a Polytron 2 times and centrifuged at 3000 rpm for 10 min. The supernatant is then centrifuged at 18,000 rpm for 20 min. The pellet is saved in a tube and 10 ml assay buffer is added into the tube. The pellet and buffer are mixed with a Polytron.
(§2) The pellet membranes (20 μg/ml) are preincubated with SPA (10 mg/ml) at 25° C. for 45 min in the assay buffer. The SPA (5 mg/ml) coupled with membranes (10 μg/ml) is then incubated with 0.5 nM [^35S]GTPgS in the same HEPES buffer containing 50 μM GDP in total volume of 200 μl. Increasing concentrations of receptor agonists are used to stimulate [^35S]GTPgS binding. The basal binding is tested in the absence of agonists and non-specific binding is tested in the presence of 10 μM unlabeled GTP S. The data are analyzed on a Top counter.

human mu opioid receptor = target: T5, human mu opioid receptor (Homo sapiens, UniProt P35372); assay: [35S]GTPγS binding assay in CHO-hμ cell membranes; format: biochemical; conditions: inhibition relative to 1 uM DAMGO; for inhibition at 10 µM: read-out: hMOR GTPγS % I @10 μM
T5 construct: purchased Receptor Biology, Inc. (Baltimore, Md.); host or cells: CHO cells expressing the human mu receptor (membranes)
T5 sequence (P35372 whole entry): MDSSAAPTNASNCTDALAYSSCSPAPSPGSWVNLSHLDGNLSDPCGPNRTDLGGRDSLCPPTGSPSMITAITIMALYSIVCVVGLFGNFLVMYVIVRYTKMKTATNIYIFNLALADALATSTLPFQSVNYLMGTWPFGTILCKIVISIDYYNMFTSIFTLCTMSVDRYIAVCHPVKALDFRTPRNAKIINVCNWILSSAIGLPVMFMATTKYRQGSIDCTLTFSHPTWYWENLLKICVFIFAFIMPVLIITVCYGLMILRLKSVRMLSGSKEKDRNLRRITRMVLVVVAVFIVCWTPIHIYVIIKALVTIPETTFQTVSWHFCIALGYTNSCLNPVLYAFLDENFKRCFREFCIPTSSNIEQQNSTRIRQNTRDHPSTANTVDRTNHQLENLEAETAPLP
Protocol: CHO-hμ cell membranes are purchased from Receptor Biology, Inc. (Baltimore, Md.). About 10 mg/ml of membrane protein is suspended in 10 mM TRIS-HC pH 7.2, 2 mM EDTA, 10% sucrose.
as §1, with “assay buffer contains 50 mM” for “assay buffer contained 50 mM”, “is added to the tube.” for “is added into the tube.”
as §2, with “25 C′” for “25° C.”, “present” for “presence of”, “GTPγS.” for “GTP S.”
% of Basal=(stimulate−non-specific)*100/(basal−non specific). % inhibition value values are calculated using a formula, % Inhibition=(% Basal of 1 uM DAMGO−% Basal of compound)*100/(% Basal of 1 uM DAMGO−100)

[4] = hDOR GTPγS EC50, human delta opioid receptor GTPγS functional assay
[5] = human delta opioid receptor GTPγS functional assay, read-out: hDOR GTPγS EC50

T1 sequence (P33533 whole entry): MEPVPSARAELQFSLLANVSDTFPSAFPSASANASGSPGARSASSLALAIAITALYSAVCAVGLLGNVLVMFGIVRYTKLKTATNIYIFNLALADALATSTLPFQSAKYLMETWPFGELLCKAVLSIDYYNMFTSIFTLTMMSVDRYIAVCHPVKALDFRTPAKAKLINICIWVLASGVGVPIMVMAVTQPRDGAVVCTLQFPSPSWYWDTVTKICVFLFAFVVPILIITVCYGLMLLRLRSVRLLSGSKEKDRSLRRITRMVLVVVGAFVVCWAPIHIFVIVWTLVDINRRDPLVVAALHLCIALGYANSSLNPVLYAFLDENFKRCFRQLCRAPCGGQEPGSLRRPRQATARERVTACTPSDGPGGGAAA

SMILES	Ki ([1]; rDOR Ki)	Ki ([2]; read-out: rMOR Ki)	EC50 (delta opioid receptor; delta opioid receptor GTPγS functional assay, read-out: DOR GTPγS EC50)	Ki ([2]; rMOR Ki)	EC50 (delta opioid receptor; DOR GTPγS EC50, delta opioid receptor GTPγS functional assay)	EC50 [3, 4]	inhibition at 10 µM (human mu opioid receptor)	EC50 [3, 5]	Ki ([1]; read-out: rDOR Ki)	hMOR GTPγS % I @10 μM (human mu opioid receptor)
CCNC(=O)c1ccc2c(c1)Oc1ccccc1C2=C1CC2CCC(C1)N2 (single isomer, unassigned) [Compound 55]	66.5 nM	1860 nM	> 1000 nM	–	–	–	–	–	–	–
CCN(CC)C(=O)c1ccc2c(c1)Sc1ccccc1C2=C1CC2CCC(C1)N2 (single isomer, unassigned) [Compound 61, 9-(8-Aza-bicyclo[3.2.1]oct-3-ylidene)-9H-thioxanthene-3-carboxylic acid diethylamide]	133 nM	–	–	7180 nM	188 nM	–	–	–	–	–
CCN(CC)C(=O)c1ccc2c(c1)Oc1ccccc1C2=C1CCNCC1 [Compound 3, 9-Piperidin-4-ylidene-9H-xanthene-3-carboxylic acid diethylamide]	0.95 nM	–	–	6790 nM	–	47 nM	1%	–	–	–
CCN(CC)C(=O)c1ccc2c(c1)OCc1ccccc1C2=C1CCN(Cc2ccc3c(c2)OCO3)CC1 [Compound 4, 11-(1-Benzo[1,3]dioxol-5-ylmethyl-piperidin-4-ylidene)-6,11-dihydro-dibenzo[b,e]oxepine-3-carboxylic acid diethylamide]	0.39 nM	301 nM	–	–	–	–	9%	552 nM	–	–
CCN(CC)C(=O)c1ccc2c(c1)Oc1ccccc1C2=C1CCN(C)CC1 [Compound 7, 9-(1-Methyl-piperidin-4-ylidene)-9H-xanthene-3-carboxylic acid diethylamide]	25.7 nM	–	–	9190 nM	–	–	1%	–	–	–
C=CCN1CCC(=C2c3ccccc3Oc3cc(C(=O)N(CC)CC)ccc32)CC1 [Compound 8, 9-(1-Allyl-piperidin-4-ylidene)-9H-xanthene-3-carboxylic acid diethylamide]	2.1 nM	2820 nM	–	–	–	–	1%	620 nM	–	–
CCN(CC)C(=O)c1ccc2c(c1)Oc1ccccc1C2=C1CCN(CCc2ccccc2)CC1 [Compound 22]	45.4 nM	2130 nM	–	–	–	–	2%	> 10000 nM	–	–
CCN(CC)C(=O)c1ccc2c(c1)Oc1ccccc1C2=C1CC2CCC(C1)N2 [Compound 24, 9-(8-Aza-bicyclo[3.2.1]oct-3-ylidene)-9H-xanthene-3-carboxylic acid diethylamide]	0.57 nM	–	–	5690 nM	–	10.2 nM	1%	–	–	–
CCNC(=O)c1ccc2c(c1)OCc1ccccc1C2=C1CC2CCC(C1)N2CCc1ccccc1 [Compound 26, 1-(8-Phenethyl-8-aza-bicyclo[3.2.1]oct-3-ylidene)-6,11-dihydro-dibenzo[b,e]oxepine-3-carboxylic acid ethylamide]	–	15.6 nM	–	–	–	–	–	–	5480 nM	41.00%
CCN(CC)C(=O)c1ccc2c(c1)Oc1ccccc1C2=C1CCN(Cc2ccoc2)CC1 [Compound 28, 9-(1-Furan-3-ylmethyl-piperidin-4-ylidene)-9H-xanthene-3-carboxylic acid diethylamide]	0.07 nM	–	–	811 nM	–	70.3 nM	24%	–	–	–
CCN(CC)C(=O)c1ccc2c(c1)Oc1ccccc1C2=C1CCN(Cc2ccccn2)CC1 [Compound 29]	0.05 nM	–	–	362 nM	–	31.6 nM	34%	–	–	–
CCN(CC)C(=O)c1ccc2c(c1)Oc1ccccc1C2=C1CCN(Cc2ccccc2O)CC1 [Compound 30]	10.9 nM	912 nM	–	–	–	–	24%	2480 nM	–	–
CCN(CC)C(=O)c1ccc2c(c1)Oc1ccccc1C2=C1CCN(C(=N)N)CC1 [Compound 31, 9-(1-Carbamimidoyl-piperidin-4-ylidene)-9H-xanthene-3-carboxylic acid diethylamide]	29.8 nM	564 nM	–	–	–	–	14%	253 nM	–	–
CCN(CC)C(=O)c1ccc2c(c1)Oc1ccccc1C2=C1CCN(CCO)CC1 [Compound 35, 9-[1-(2-Hydroxy-ethyl)-piperidin-4-ylidene]-9H-xanthene-3-carboxylic acid diethylamide]	7.01 nM	> 10000 nM	–	–	–	–	17%	271 nM	–	–
CCN(CC)C(=O)c1ccc2c(c1)Oc1ccccc1C2=C1CCN(C=Nc2ccccc2)CC1 [Compound 36, 9-(1-Phenyliminomethyl-piperidin-4-ylidene)-9H-xanthene-3-carboxylic acid diethylamide]	0.79 nM	–	–	> 10000 nM	–	42.5 nM	14%	–	–	–
CCN(CC)C(=O)c1ccc2c(c1)Oc1ccccc1C2=C1CCN(C=S)CC1 [Compound 37, 9-(1-Thioformyl-piperidin-4-ylidene)-9H-xanthene-3-carboxylic acid diethylamide]	2.02 nM	–	–	> 10000 nM	–	921 nM	5%	–	–	–
CCN(CC)C(=O)c1ccc2c(c1)Oc1ccccc1C2C1CCNCC1 (stereo not drawn) [Compound 42, 9-Piperidin-4-yl-9H-xanthene-3-carboxylic acid diethylamide]	–	8790 nM	–	–	–	–	4%	266 nM	14.7 nM	–
CCN(CC)C(=O)c1ccc2c(c1)Oc1ccccc1C2=C1CC2CCC(C1)N2Cc1ccccn1 [Compound 44]	0.15 nM	–	–	77.2 nM	–	0.873 nM	28%	–	–	–
CCN(CC)C(=O)c1ccc2c(c1)Sc1ccccc1C2=C1CC2CCC(C1)N2Cc1ccc2c(c1)OCO2 [Compound 47, 9-(8-Benzo[1,3]dioxol-5-ylmethyl-8-aza-bicyclo[3.2.1]oct-3-ylidene)-9H-thioxanthene-3-carboxylic acid diethylamide]	4.5 nM	–	–	48.3 nM	–	–	59.2%	125 nM	–	–
